Experiments:
Test in all cases: relative viability (nuclei count vs DMSO), 5 days (fraction); higher = more cells survive
ChaGo-K-1 = tested on: ChaGo-K-1
In short: (§1)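 The day after seeding in 1536-well plates, lung cancer cell lines were treated by pin tool with a single drug, or with a fixed anchor-drug dose together with five library-drug doses (not always all listed) in √10 steps. After 5 days, a combined fix-and-stain solution (final 0.05% Triton X-100, 1% formaldehyde, 1 ug/ml Hoechst) was added. Nuclei counted on 4× images gave relative viability as treated counts over vehicle counts, reported as the median of duplicate plates.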

EMC-BAC-2 = tested on: EMC-BAC-2
In short: as §1

EPLC-272H = tested on: EPLC-272H
In short: as §1

H3255 = tested on: H3255
In short: as §1

HCC-44 = tested on: HCC-44
In short: as §1

HCC-827 = tested on: HCC-827
In short: as §1

LCLC-103H = tested on: LCLC-103H
In short: as §1

LCLC-97TM1 = tested on: LCLC-97TM1
In short: as §1

NCI-H1355 = tested on: NCI-H1355
In short: as §1

NCI-H1563 = tested on: NCI-H1563
In short: as §1

NCI-H1651 = tested on: NCI-H1651
In short: as §1

NCI-H2023 = tested on: NCI-H2023
In short: as §1

NCI-H2085 = tested on: NCI-H2085
In short: as §1

NCI-H2087 = tested on: NCI-H2087
In short: as §1

NCI-H2405 = tested on: NCI-H2405
In short: as §1

NCI-H322M = tested on: NCI-H322M
In short: as §1

NCI-H520 = tested on: NCI-H520
In short: as §1

NCI-H650 = tested on: NCI-H650
In short: as §1

UMC-11 = tested on: UMC-11
In short: as §1

`CC1(C)CCC(c2ccc(Cl)cc2)=C(CN2CCN(c3ccc(C(=O)NS(=O)(=O)c4ccc(N[C@H](CCN5CCOCC5)CSc5ccccc5)c(S(=O)(=O)C(F)(F)F)c4)cc3)CC2)C1` [Navitoclax] + CC(C)C[C@H](NC(=O)[C@H](Cc1ccccc1)NC(=O)c1cnccn1)B(O)O [Bortezomib] (partner 0.002 µM) showed a relative viability (ChaGo-K-1; first compound 0.005 µM) of 0.907, a relative viability (ChaGo-K-1; first compound 0.01581 µM) of 1.01 and a relative viability (ChaGo-K-1; first compound 0.05 µM) of 0.91. The relative viability (ChaGo-K-1; first compound 0.1581 µM) was 0.959, the relative viability (ChaGo-K-1; first compound 0.5 µM) was 1.04 and the relative viability (EMC-BAC-2; first compound 0.005 µM) was 1.04. The relative viability (EMC-BAC-2; first compound 0.01581 µM) was 1.19, the relative viability (EMC-BAC-2; first compound 0.05 µM) was 1.01 and the relative viability (EMC-BAC-2; first compound 0.1581 µM) was 1.03. For the same compound, the relative viability (EMC-BAC-2; first compound 0.5 µM) was 1.12, the relative viability (EPLC-272H; first compound 0.005 µM) was 0.925 and the relative viability (EPLC-272H; first compound 0.1581 µM) was 0.988. It also gave a relative viability (EPLC-272H; first compound 0.5 µM) of 0.887, a relative viability (H3255; first compound 0.005 µM) of 0.849 and a relative viability (H3255; first compound 0.01581 µM) of 1.09. For the same compound, the relative viability (H3255; first compound 0.05 µM) was 0.836, the relative viability (H3255; first compound 0.1581 µM) was 0.692 and the relative viability (H3255; first compound 0.5 µM) was 0.632. It also gave a relative viability (HCC-44; first compound 0.005 µM) of 0.859, a relative viability (HCC-44; first compound 0.01581 µM) of 0.912 and a relative viability (HCC-44; first compound 0.05 µM) of 0.859. The relative viability (HCC-44; first compound 0.1581 µM) was 0.927, the relative viability (HCC-44; first compound 0.5 µM) was 0.882 and the relative viability (HCC-827; first compound 0.005 µM) was 1.02. The relative viability (HCC-827; first compound 0.01581 µM) was 1.21, the relative viability (HCC-827; first compound 0.05 µM) was 0.87 and the relative viability (HCC-827; first compound 0.1581 µM) was 1.08. It also gave a relative viability (HCC-827; first compound 0.5 µM) of 0.999, a relative viability (LCLC-103H; first compound 0.005 µM) of 1.13 and a relative viability (LCLC-103H; first compound 0.01581 µM) of 1.25. It also gave a relative viability (LCLC-103H; first compound 0.05 µM) of 1.18, a relative viability (LCLC-103H; first compound 0.1581 µM) of 1.15 and a relative viability (LCLC-103H; first compound 0.5 µM) of 1.06. It also gave a relative viability (LCLC-97TM1; first compound 0.005 µM) of 0.696, a relative viability (LCLC-97TM1; first compound 0.01581 µM) of 1.06 and a relative viability (LCLC-97TM1; first compound 0.05 µM) of 0.583. For the same compound, the relative viability (LCLC-97TM1; first compound 0.1581 µM) was 0.6, the relative viability (LCLC-97TM1; first compound 0.5 µM) was 0.513 and the relative viability (NCI-H1355; first compound 0.005 µM) was 1.02. The relative viability (NCI-H1355; first compound 0.01581 µM) was 1.24, the relative viability (NCI-H1355; first compound 0.05 µM) was 1.06 and the relative viability (NCI-H1355; first compound 0.1581 µM) was 1.15. For the same compound, the relative viability (NCI-H1355; first compound 0.5 µM) was 1.14, the relative viability (NCI-H1563; first compound 0.005 µM) was 0.83 and the relative viability (NCI-H1563; first compound 0.01581 µM) was 1. For the same compound, the relative viability (NCI-H1563; first compound 0.05 µM) was 0.748, the relative viability (NCI-H1563; first compound 0.1581 µM) was 1.05 and the relative viability (NCI-H1563; first compound 0.5 µM) was 1.24. For the same compound, the relative viability (NCI-H1651; first compound 0.005 µM) was 0.918, the relative viability (NCI-H1651; first compound 0.01581 µM) was 0.916 and the relative viability (NCI-H1651; first compound 0.05 µM) was 0.423. It also gave a relative viability (NCI-H1651; first compound 0.1581 µM) of 0.943, a relative viability (NCI-H1651; first compound 0.5 µM) of 0.957 and a relative viability (NCI-H2023; first compound 0.005 µM) of 1.06. It also gave a relative viability (NCI-H2023; first compound 0.01581 µM) of 1.18, a relative viability (NCI-H2023; first compound 0.05 µM) of 0.857 and a relative viability (NCI-H2023; first compound 0.1581 µM) of 0.906. It also gave a relative viability (NCI-H2023; first compound 0.5 µM) of 0.938, a relative viability (NCI-H2085; first compound 0.005 µM) of 0.977 and a relative viability (NCI-H2085; first compound 0.01581 µM) of 1.09. For the same compound, the relative viability (NCI-H2085; first compound 0.05 µM) was 0.855, the relative viability (NCI-H2085; first compound 0.1581 µM) was 1.15 and the relative viability (NCI-H2085; first compound 0.5 µM) was 0.978. The relative viability (NCI-H2087; first compound 0.005 µM) was 0.905, the relative viability (NCI-H2087; first compound 0.01581 µM) was 0.979 and the relative viability (NCI-H2087; first compound 0.05 µM) was 0.504. It also gave a relative viability (NCI-H2087; first compound 0.1581 µM) of 0.612, a relative viability (NCI-H2087; first compound 0.5 µM) of 0.772 and a relative viability (NCI-H2405; first compound 0.005 µM) of 0.975. For the same compound, the relative viability (NCI-H2405; first compound 0.01581 µM) was 1.09, the relative viability (NCI-H2405; first compound 0.05 µM) was 0.816 and the relative viability (NCI-H2405; first compound 0.1581 µM) was 0.974. It also gave a relative viability (NCI-H2405; first compound 0.5 µM) of 0.906, a relative viability (NCI-H322M; first compound 0.005 µM) of 1.21 and a relative viability (NCI-H322M; first compound 0.01581 µM) of 1.33. The relative viability (NCI-H322M; first compound 0.05 µM) was 1.38, the relative viability (NCI-H322M; first compound 0.1581 µM) was 1.21 and the relative viability (NCI-H322M; first compound 0.5 µM) was 1.22. It also gave a relative viability (NCI-H520; first compound 0.005 µM) of 0.577, a relative viability (NCI-H520; first compound 0.01581 µM) of 0.743 and a relative viability (NCI-H520; first compound 0.05 µM) of 0.869. The relative viability (NCI-H520; first compound 0.1581 µM) was 0.6, the relative viability (NCI-H520; first compound 0.5 µM) was 0.712 and the relative viability (NCI-H650; first compound 0.005 µM) was 0.742. The relative viability (NCI-H650; first compound 0.01581 µM) was 0.959, the relative viability (NCI-H650; first compound 0.05 µM) was 0.817 and the relative viability (NCI-H650; first compound 0.1581 µM) was 0.767. It also gave a relative viability (NCI-H650; first compound 0.5 µM) of 0.837, a relative viability (UMC-11; first compound 0.005 µM) of 0.629 and a relative viability (UMC-11; first compound 0.01581 µM) of 0.8. For the same compound, the relative viability (UMC-11; first compound 0.1581 µM) was 0.661 and the relative viability (UMC-11; first compound 0.5 µM) was 0.311.
